Test results taken from patent US11591369B2, “Alpha(v)beta(6) integrin-binding peptides and methods of use thereof” (priority 2018, dated 2023).
Where “and” joins values, the source holds several entries; their conditions need not be identical. Equal entries are not always repeated. Where two headings read alike, the source gives them in different places. Where a SMILES comes first, the peptide text is derived from it. Primed or numbered codes have the meaning given here. Where no end group is shown, it is not given here. [ ]: non-standard residue; d: D form. The star is where a group is joined. (18F)FB = [18F] fluorobenzoyl group, O=C(c1ccc([18F])cc1)*; (18F)FB″ = [18F]fluorobenzoyl, O=C(c1ccc([18F])cc1)*; PEG12′ = polyethylene glycol, 12 units; PEG28″ = polyethylene glycol, 28 units; PEG2′ = polyethylene glycol, 2 units; PEG8′ = polyethylene glycol, 8 units; Benzoyl(4-F) = O=C(c1ccc(F)cc1)*; PEG28′ = polyethylene glycol-28; Amb = aminomethylbenzoyl

Experiments:
[1] = biological target: T1, αvβ6 integrin (Homo sapiens, UniProt P06756+P18564); experiment: Competitive binding ELISA against biotinylated LAP (BtLAP), αvβ6 integrin; settings: for IC50 αvβ6: competitive ELISA vs BtLAP, mean ± SD, n = 3
T1 construct: All purified integrins were purchased from R&D Systems (MN, USA); purchased R&D Systems (MN, USA)

[2] = biological target: T2, αvβ3 integrin (Homo sapiens, UniProt P05106+P06756); experiment: Competitive binding ELISA, αvβ3 integrin
T2 construct: All purified integrins were purchased from R&D Systems (MN, USA); purchased R&D Systems (MN, USA)

[3] = biological target: T3, αvβ8 integrin (Homo sapiens, UniProt P06756+P26012); experiment: Competitive binding ELISA, αvβ8 integrin
T3 construct: All purified integrins were purchased from R&D Systems (MN, USA); purchased R&D Systems (MN, USA)

[4] = tested on: DX3puroβ6 (αvβ6+) cells; experiment: [18F]-radiolabeled peptide cell binding and internalization, DX3puroβ6 (αvβ6+) cells; type: cell-based, human; design: fold increase in binding to DX3puroβ6 (αvβ6+) cells / fold lower binding to DX3puroβ6 (αvβ6+) cells: reference not given here; settings: for binding to DX3puroβ6 (αvβ6+) cells: % of total activity, 37° C.
[5] = Circular dichroism (CD) spectroscopy; type: physicochemical; settings: for % Helical Content CD Buffer: 25 mM phosphate + 100 mM NaF; for % Helical Content CD Buffer + 30% TFE: buffer with 30% trifluoroethanol
[6] = 37° C., 1 hour, radio-HPLC

Compound	IC50 [1] [µM]	IC50 [2] [µM]	IC50 [3] [µM]	percent internalized relative to the amount bound to DX3puroβ6 (αvβ6+) cells ([4]; 1 hour)	binding to DX3puroβ6 (αvβ6+) cells ([4]; 1 hour)	intact peptide in mouse serum [6]	further results
CC(C)C[C@H](NC(=O)[C@H](CC(=O)O)NC(=O)CNC(=O)[C@H](CCCNC(=N)N)NC(=O)c1ccc(F)cc1)C(=O)N[C@@H](C)C(=O)N[C@@H](CC(=O)O)C(=O)N[C@@H](CC(C)C)C(=O)N[C@@H](CCCNC(=N)N)C(=O)N[C@@H](CCC(N)=O)C(=O)N[C@@H](CCCCN)C(=O)N[C@H](C(=O)N[C@@H](C)C(=O)N[C@@H](CCCNC(=N)N)C(=O)N[C@H](C(N)=O)[C@@H](C)O)C(C)C [P3Q] ({Benzoyl(4-F)}-RGDLADLRQKVART-NH2)	0.004 ± 0.001	> 100	0.02 ± 0.003	–	–	–	DX3puroβ6 (αvβ6+)/DX3puro (αvβ6−) selectivity ratio ([4]; cell binding, 1 hour): 11.8 ± 0.4:1; % Helical Content CD Buffer [5]: 14.7%; % Helical Content CD Buffer + 30% TFE [5]: 30%
CC(C)C[C@H](NC(=O)[C@H](Cc1ccc(O)cc1)NC(=O)[C@@H](NC(=O)[C@H](CC(C)C)NC(=O)[C@H](CC(=O)O)NC(=O)CNC(=O)[C@@H](N)C(C)C)[C@@H](C)O)C(=O)N[C@@H](CCCCN)C(=O)N[C@@H](CCCCNC(=O)c1ccc(F)cc1)C(N)=O [P1] (H-VGDLTYLKK(Benzoyl(4-F))-NH2)	0.45 ± 0.06	> 100	5.3 ± 0.14	–	–	–	DX3puroβ6 (αvβ6+)/DX3puro (αvβ6−) selectivity ratio [4]: 1.1 ± 0.1:1; % Helical Content CD Buffer [5]: 6.3%; % Helical Content CD Buffer + 30% TFE [5]: 9.5%; α-helix formation in CD buffer with TFE ([5]; buffer with added TFE, 30%): could not form the helix
CC(C)C[C@H](NC(=O)[C@H](Cc1ccc(O)cc1)NC(=O)[C@@H](NC(=O)[C@H](CC(C)C)NC(=O)[C@H](CC(=O)O)NC(=O)CNC(=O)[C@@H](NC(=O)c1ccc(F)cc1)C(C)C)[C@@H](C)O)C(=O)N[C@@H](CCCCN)C(=O)N[C@@H](CCCCN)C(=O)N[C@@H](CCCCN)C(=O)N[C@H](C(=O)N[C@@H](C)C(=O)N[C@@H](CCCNC(=N)N)C(=O)N[C@H](C(N)=O)[C@@H](C)O)C(C)C [P1K-b]	0.01 ± 0.002	> 100	> 100	–	–	–	binding selectivity for αvβ6 over αvβ3 and αvβ8 integrins ([1]; ELISA IC50 ratio): 10,000 :1; IC50 αvβ6 [1]: low nanomolar
[^18F]FB-RGDLTYLKQKVART-PEG28 ({(18F)FB″}-RGDLTYLKQKVART[PEG28′]) [N-[^18F]T1-V1R]	–	–	–	11.1±2.6%	34.2±0.2%	54%	DX3puroβ6 (αvβ6+)/DX3puro (αvβ6−) selectivity ratio [4]: 11.1±0.5 :1; fold increase in binding to DX3puroβ6 (αvβ6+) cells [4]: 6 fold
[^18F]FB-PEG12-VGDLTYLKQKVART-PEG28 ({(18F)FB″-PEG12′}-VGDLTYLKQKVART[PEG28″]) [N-[^18F]T1-d]	–	–	–	32±13%	–	82%	–
[^18F]FB-PEG2-VGDLTYLKQKVART-PEG28 ({(18F)FB″-PEG2′}-VGDLTYLKQKVART[PEG28″]) [N-[^18F]T1-a]	–	–	–	31.1±7.2%	–	65%	–
CC(C)C[C@H](NC(=O)[C@H](CC(=O)O)NC(=O)[C@H](CO)NC(=O)[C@H](CCCNC(=N)N)NC(=O)c1ccc(F)cc1)C(=O)N[C@H](C(=O)N1CCC[C@H]1C(=O)N[C@@H](CC(C)C)C(=O)N[C@@H](Cc1ccccc1)C(N)=O)[C@@H](C)O [KL3] ({Benzoyl(4-F)}-RSDLTPLF-NH2)	1.7 ± 0.5	> 100	> 100	–	0.7±0.2%	–	DX3puroβ6 (αvβ6+)/DX3puro (αvβ6−) selectivity ratio ([4]; cell binding, 1 hour): 0.9±0.5 :1
[^18F]FB-Amb-VGDLTYLKQKVART-PEG28 ({(18F)FB″-Amb}-VGDLTYLKQKVART[PEG28′]) [N-[^18F]T1-f]	–	–	–	25.2±2.4%	6.8±0.2%	< 50%	DX3puroβ6 (αvβ6+)/DX3puro (αvβ6−) selectivity ratio [4]: 3.2±0.4 :1; fold loss in selectivity for DX3puroβ6 (αvβ6+) cells [4]: 13 fold; fold decline in binding to DX3puroβ6 (αvβ6+) cells ([4]; compared to the parent T1): 3 fold
CC(C)C[C@H](NC(=O)[C@H](CC(=O)O)NC(=O)[C@H](CO)NC(=O)[C@H](CCCNC(=N)N)NC(=O)c1ccc(F)cc1)C(=O)N[C@H](C(=O)N1CCC[C@H]1C(=O)N[C@@H](CC(C)C)C(=O)N[C@@H](Cc1ccccc1)C(=O)N[C@@H](CCC(N)=O)C(=O)N[C@@H](CCCCN)C(=O)N[C@H](C(=O)N[C@@H](C)C(=O)N[C@@H](CCCNC(=N)N)C(=O)N[C@H](C(N)=O)[C@@H](C)O)C(C)C)[C@@H](C)O [KL3Q] ({Benzoyl(4-F)}-RSDLTPLFQKVART-NH2)	0.0087 ± 0.0007	> 100	> 100	–	–	–	–
CC(C)C[C@H](NC(=O)[C@H](Cc1ccc(O)cc1)NC(=O)[C@@H](NC(=O)[C@H](CC(C)C)NC(=O)[C@H](CC(=O)O)NC(=O)CNC(=O)[C@@H](NC(=O)c1ccc(F)cc1)C(C)C)[C@@H](C)O)C(=O)N[C@@H](CCCCN)C(=O)N[C@@H](CCCNC(=N)N)C(=O)N[C@@H](CCCCN)C(=O)N[C@@H](C)C(=O)N[C@H](C(=O)N[C@H](C(=O)N[C@@H](CCC(N)=O)C(N)=O)C(C)C)[C@@H](C)O [P1Q-Scrb] ({Benzoyl(4-F)}-VGDLTYLKRKATVQ-NH2)	0.014 ± 0.002	> 100	2.9 ± 0.74	–	–	–	IC50 αvβ6 [1]: low nanomolar
[^18F]FB-RGDLADLRQKVART ({(18F)FB″}-RGDLADLRQKVART) [N-[^18F]P3Q]	–	–	–	12.4±3.6%	20±0.4% and 20±0.2% and 20%	16%	–
RGDLADLRK([^18F]FB) (RGDLADLRK((18F)FB″)) [[^18F]P3]	–	–	–	4.3±0.6%	10.8±1.4%	0%	–
VGDLTYLKK([^18F]FB) (VGDLTYLKK((18F)FB″)) [[^18F]P1]	–	–	–	3.7±0.6%	12.8±1.9%	25% and < 25%	–
[^18F]FB-PEG28Amb-VGDLTYLKQKVART-PEG28 ({(18F)FB-PEG28′-Amb}-VGDLTYLKQKVART[PEG28′]) [N-[^18F]T1-g]	–	–	–	43.1±4.4%	3±0.2%	90%	DX3puroβ6 (αvβ6+)/DX3puro (αvβ6−) selectivity ratio [4]: 5.7±0.06 :1 and 5.7±0.05 :1; fold loss in selectivity for DX3puroβ6 (αvβ6+) cells [4]: 7 fold; fold lower binding to DX3puroβ6 (αvβ6+) cells [4]: 2 fold
[^18F]FB-VGDLTYLKQKVART-PEG28 ({(18F)FB″}-VGDLTYLKQKVART[PEG28′]) [N-[^18F]T1]	–	–	–	–	18.1±0.8%	61%	DX3puroβ6 (αvβ6+)/DX3puro (αvβ6−) selectivity ratio [4]: 41.7±5.3 :1; fold increase in binding to DX3puroβ6 (αvβ6+) cells [4]: 3 fold
VGDLTYLKK([^18F]FB)KVART (VGDLTYLKK((18F)FB″)KVART) [[^18F]P1K-a]	–	–	–	–	6.2±1.3%	> 99%	–
CC(C)C[C@H](NC(=O)[C@H](Cc1ccc(O)cc1)NC(=O)[C@@H](NC(=O)[C@H](CC(C)C)NC(=O)[C@H](CC(=O)O)NC(=O)CNC(=O)[C@@H](NC(=O)CCOCCOCCOCCOCCOCCOCCOCCOCCOCCOCCOCCOCCOCCOCCOCCOCCOCCOCCOCCOCCOCCOCCOCCOCCOCCOCCOCCOCCNC(=O)c1ccc(F)cc1)C(C)C)[C@@H](C)O)C(=O)N[C@@H](CCCCN)C(=O)N[C@@H](CCC(N)=O)C(=O)N[C@@H](CCCCN)C(=O)N[C@H](C(=O)N[C@@H](C)C(=O)N[C@@H](CCCNC(=N)N)C(=O)N[C@H](C(=O)NCCOCCOCCOCCOCCOCCOCCOCCOCCOCCOCCOCCOCCOCCOCCOCCOCCOCCOCCOCCOCCOCCOCCOCCOCCOCCOCCOCCOCCC(N)=O)[C@@H](C)O)C(C)C [N-[^18F]T1-e]	–	–	–	25.7±2.2% and 25.7±2.7%	1.5±0.1%	> 99%	intact peptide in mouse serum ([6]; 60 min): 100%
[^18F]FB-PEG8-VGDLTYLKQKVART-PEG28 ({(18F)FB″-PEG8′}-VGDLTYLKQKVART[PEG28″]) [N-[^18F]T1-c]	–	–	–	36.9±3%	–	91%	–
